# Results from PubChem BioAssay AID2060888 (Molecular Pharmacology Branch, DTP, NCI, 2025).
# System: 695427-040-R-J1-PDC complex spheroid viability
# Experiment: Anticancer human tumor 695427-040-R-J1-PDC patient-derived colon adenocarcinoma cell line growth inhibition [RAS]
# Settings: for IC50: curve of first compound; for viability, T/C: stronger effect = lower value
# Procedure, shortened: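 Multi-cell-type spheroids: tumor cells plus HUVEC endothelial cells and mesenchymal stem cells. RAS-pathway inhibitors were combined with targeted agents, each dosed in half-log steps down from clinical Cmax, or from 10 microM when Cmax was unknown.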
# [1] = second compound 0.000949 µM, first compound 0.0316 µM
# [2] = second compound 0.000949 µM, first compound 0.1 µM
# [3] = second compound 0.000949 µM, first compound 0.316 µM
# [4] = second compound 0.000949 µM, first compound 1 µM
# [5] = second compound 0.000949 µM, first compound 3.16 µM
# [6] = second compound 0.000949 µM, first compound 10 µM
# [7] = second compound 0.003 µM, first compound 0.0316 µM
# [8] = second compound 0.003 µM, first compound 0.1 µM
# [9] = second compound 0.003 µM, first compound 0.316 µM
# [10] = second compound 0.003 µM, first compound 1 µM
# [11] = second compound 0.003 µM, first compound 3.16 µM
# [12] = second compound 0.003 µM, first compound 10 µM
# [13] = second compound 0.00949 µM, first compound 0.0316 µM
# [14] = second compound 0.00949 µM, first compound 0.1 µM
# [15] = second compound 0.00949 µM, first compound 0.316 µM
# [16] = second compound 0.00949 µM, first compound 1 µM
# [17] = second compound 0.00949 µM, first compound 3.16 µM
# [18] = second compound 0.00949 µM, first compound 10 µM
# [19] = second compound 0.03 µM, first compound 0.0316 µM
# [20] = second compound 0.03 µM, first compound 0.1 µM
# [21] = second compound 0.03 µM, first compound 0.316 µM
# [22] = second compound 0.03 µM, first compound 1 µM
# [23] = second compound 0.03 µM, first compound 3.16 µM
# [24] = second compound 0.03 µM, first compound 10 µM
# [25] = second compound 0.0949 µM, first compound 0.0316 µM
# [26] = second compound 0.0949 µM, first compound 0.1 µM
# [27] = second compound 0.0949 µM, first compound 0.316 µM
# [28] = second compound 0.0949 µM, first compound 1 µM
# [29] = second compound 0.0949 µM, first compound 3.16 µM
# [30] = second compound 0.0949 µM, first compound 10 µM
# [31] = second compound 0.3 µM, first compound 0.0316 µM
# [32] = second compound 0.3 µM, first compound 0.1 µM
# [33] = second compound 0.3 µM, first compound 0.316 µM
# [34] = second compound 0.3 µM, first compound 1 µM
# [35] = second compound 0.3 µM, first compound 3.16 µM
# [36] = second compound 0.3 µM, first compound 10 µM
# 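Further: viability read after seven days of drug exposure.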
# 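Wherever viability, T/C is given: 100% = DMSO vehicle control viability.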
smiles,measurement,setting,value
CC(Nc1ccc2c(c1)OCCn1cc(N3C(=O)OCC3C(F)F)nc1-2)C(N)=O (stereo unspecified) + CCn1c(-c2cc(N3CCN(C)CC3)cnc2C(C)OC)c2c3cc(ccc31)-c1csc(n1)CC(NC(=O)C1CC1C)C(=O)N1CCCC(N1)C(=O)OCC(C)(C)C2,IC50,second compound 0.000949 µM,0.855 µM
same,IC50,second compound 0.003 µM,0.673 µM
same,IC50,second compound 0.00949 µM,0.581 µM
same,IC50,second compound 0.03 µM,< 0.0316 µM
same,IC50,second compound 0.0949 µM,< 0.0316 µM
same,IC50,second compound 0.3 µM,< 0.0316 µM
same,"viability, T/C",[1],61.4%
same,"viability, T/C",[2],72.4%
same,"viability, T/C",[3],69.7%
same,"viability, T/C",[4],47.1%
same,"viability, T/C",[5],39.1%
same,"viability, T/C",[6],38%
same,"viability, T/C",[7],100%
same,"viability, T/C",[8],70.5%
same,"viability, T/C",[9],59.5%
same,"viability, T/C",[10],41.9%
same,"viability, T/C",[11],45.6%
same,"viability, T/C",[12],41.9%
same,"viability, T/C",[13],86.2%
same,"viability, T/C",[14],66.2%
same,"viability, T/C",[15],54%
same,"viability, T/C",[16],49.8%
same,"viability, T/C",[17],32.2%
same,"viability, T/C",[18],25.6%
same,"viability, T/C",[19],45.6%
same,"viability, T/C",[20],48.3%
same,"viability, T/C",[21],32.2%
same,"viability, T/C",[22],27.1%
same,"viability, T/C",[23],26.6%
same,"viability, T/C",[24],22.3%
same,"viability, T/C",[25],35%
same,"viability, T/C",[26],33.3%
same,"viability, T/C",[27],31.4%
same,"viability, T/C",[28],19.1%
same,"viability, T/C",[29],21.3%
same,"viability, T/C",[30],14.6%
same,"viability, T/C",[31],36.1%
same,"viability, T/C",[32],22.2%
same,"viability, T/C",[33],24.3%
same,"viability, T/C",[34],17.1%
same,"viability, T/C",[35],14.9%
same,"viability, T/C",[36],13.7%
Nc1ccn(C2OC(CO)C(O)C2(F)F)c(=O)n1 (stereo unspecified) + CCn1c(-c2cccnc2C(C)OC)c2c3cc(ccc31)N1CCOC(CC(NC(=O)C(C(C)C)N(C)C(=O)C3(F)CCN(C(=O)C#CC(C)(C)N(C)C)CC3)C(=O)N3CCCC(N3)C(=O)OCC(C)(C)C2)C1,IC50,second compound 0.000949 µM,> 1 µM
same,IC50,second compound 0.003 µM,> 1 µM
same,IC50,second compound 0.00949 µM,> 1 µM
same,IC50,second compound 0.03 µM,> 1 µM
same,IC50,second compound 0.0949 µM,> 1 µM
same,IC50,second compound 0.3 µM,> 1 µM
same,"viability, T/C","second compound 0.000949 µM, first compound 0.00316 µM",92.7%
same,"viability, T/C","second compound 0.000949 µM, first compound 0.01 µM",106%
same,"viability, T/C",[1],98.3%
same,"viability, T/C",[2],82%
same,"viability, T/C",[3],77.3%
same,"viability, T/C",[4],67.5%
same,"viability, T/C","second compound 0.003 µM, first compound 0.00316 µM",79.4%
same,"viability, T/C","second compound 0.003 µM, first compound 0.01 µM",98%
same,"viability, T/C",[7],87.3%
same,"viability, T/C",[8],71%
same,"viability, T/C",[9],83.5%
same,"viability, T/C",[10],58.6%
same,"viability, T/C","second compound 0.00949 µM, first compound 0.00316 µM",98.3%
same,"viability, T/C","second compound 0.00949 µM, first compound 0.01 µM",74.3%
same,"viability, T/C",[13],87.2%
same,"viability, T/C",[14],64.8%
same,"viability, T/C",[15],82.7%
same,"viability, T/C",[16],63.5%
same,"viability, T/C","second compound 0.03 µM, first compound 0.00316 µM",83%
same,"viability, T/C","second compound 0.03 µM, first compound 0.01 µM",99%
same,"viability, T/C",[19],83.5%
same,"viability, T/C",[20],75.9%
same,"viability, T/C",[21],83.1%
same,"viability, T/C",[22],74.2%
same,"viability, T/C","second compound 0.0949 µM, first compound 0.00316 µM",80%
same,"viability, T/C","second compound 0.0949 µM, first compound 0.01 µM",94.6%
same,"viability, T/C",[25],99.6%
same,"viability, T/C",[26],73.5%
same,"viability, T/C",[27],77.8%
same,"viability, T/C",[28],62.2%
same,"viability, T/C","second compound 0.3 µM, first compound 0.00316 µM",63.5%
same,"viability, T/C","second compound 0.3 µM, first compound 0.01 µM",97.8%
same,"viability, T/C",[31],80.8%
same,"viability, T/C",[32],79.3%
same,"viability, T/C",[33],78.7%
same,"viability, T/C",[34],65.7%
CC(=O)OC12COC1CC(O)C1(C)C(=O)C(O)C3=C(C)C(OC(=O)C(O)C(NC(=O)OC(C)(C)C)c4ccccc4)CC(O)(C(OC(=O)c4ccccc4)C21)C3(C)C (stereo unspecified) + CCn1c(-c2cc(N3CCN(C)CC3)cnc2C(C)OC)c2c3cc(ccc31)-c1csc(n1)CC(NC(=O)C1CC1C)C(=O)N1CCCC(N1)C(=O)OCC(C)(C)C2,IC50,second compound 0.000949 µM,> 10 µM
same,IC50,second compound 0.003 µM,> 10 µM
same,IC50,second compound 0.00949 µM,0.292 µM
same,IC50,second compound 0.03 µM,0.0363 µM
same,IC50,second compound 0.0949 µM,< 0.0316 µM
same,IC50,second compound 0.3 µM,< 0.0316 µM
same,"viability, T/C",[1],78.2%
same,"viability, T/C",[2],73.5%
same,"viability, T/C",[3],68.7%
same,"viability, T/C",[4],57.2%
same,"viability, T/C",[5],73.5%
same,"viability, T/C",[6],52.7%
same,"viability, T/C",[7],81.4%
same,"viability, T/C",[8],70.2%
same,"viability, T/C",[9],59.7%
same,"viability, T/C",[10],60.6%
same,"viability, T/C",[11],56.5%
same,"viability, T/C",[12],65.4%
same,"viability, T/C",[13],75.3%
same,"viability, T/C",[14],53.5%
same,"viability, T/C",[15],52.1%
same,"viability, T/C",[16],44.7%
same,"viability, T/C",[17],49.7%
same,"viability, T/C",[18],34.3%
same,"viability, T/C",[19],58.1%
same,"viability, T/C",[20],38.6%
same,"viability, T/C",[21],42.1%
same,"viability, T/C",[22],44.8%
same,"viability, T/C",[23],42.9%
same,"viability, T/C",[24],36.3%
same,"viability, T/C",[25],36.5%
same,"viability, T/C",[26],36.6%
same,"viability, T/C",[27],36.4%
same,"viability, T/C",[28],33.3%
same,"viability, T/C",[29],32.4%
same,"viability, T/C",[30],29.6%
same,"viability, T/C",[31],35.2%
same,"viability, T/C",[32],28.4%
same,"viability, T/C",[33],33.9%
same,"viability, T/C",[34],26.9%
same,"viability, T/C",[35],30.9%
same,"viability, T/C",[36],27.1%
